pEC50, pKi: −log10 of the molar value.
Legend:
[1] = target: T1, RXRα (Homo sapiens, UniProt P19793); experiment: holoreceptor transactivation assay, RXRα; format: cell-based; details: for pEC50: holoreceptor assay, read-out: RXR Trans. EC50 α; for RXR Trans. efficacy α (in parentheses): percentage compared to the standard compound
T1 construct: expressed in transfected cells
T1 sequence (P19793 1-462): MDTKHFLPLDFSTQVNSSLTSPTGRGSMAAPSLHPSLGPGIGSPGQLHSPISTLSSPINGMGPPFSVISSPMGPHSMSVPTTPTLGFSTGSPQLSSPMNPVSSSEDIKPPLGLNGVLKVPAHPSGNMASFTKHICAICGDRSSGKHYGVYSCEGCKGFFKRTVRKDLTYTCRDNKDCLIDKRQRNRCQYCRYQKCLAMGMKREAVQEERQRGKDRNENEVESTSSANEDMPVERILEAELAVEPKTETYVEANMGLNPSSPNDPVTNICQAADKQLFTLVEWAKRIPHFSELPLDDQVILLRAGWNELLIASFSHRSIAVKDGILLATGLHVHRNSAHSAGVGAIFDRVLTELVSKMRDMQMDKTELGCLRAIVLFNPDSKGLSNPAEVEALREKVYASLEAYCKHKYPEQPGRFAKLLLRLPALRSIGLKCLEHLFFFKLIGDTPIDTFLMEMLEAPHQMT
Excerpt: (§1) A holoreceptor transactivation assay and a ligand binding assay which measure the antagonist/agonist like activity of the compounds of the invention, or their ability to bind to the several retinoid receptor subtypes, respectively, are described in published PCT Application No. WO WO093/11755 (particularly on pages 30-33 and 37-41) published on Jun. 24, 1993, the specification of which is also incorporated herein by reference. A detailed experimental procedure for holoreceptor transactivations has been described by Heyman et al. Cell 68, 397-406, (1992); Allegretto et al. J. Biol. Chem. 268, 26625-26633, and Mangelsdorf et al. The Retinoids: Biology, Chemistry and Medicine, pp 319-349, Raven Press Ltd., New York, which are expressly incorporated herein by reference. The results obtained in this assay are expressed in EC50 numbers, as they are also in the chimeric receptor transactivation assay. The results of the ligand binding assay are expressed in Ki numbers. (See Cheng et al Biochemical Pharmacology Vol. 22 pp 3099-3108, expressly incorporated herein by reference.)
(§2) This standard compound is described in U.S. Pat. No. 6,114,533.
(§3) Table 1 discloses the activity of certain exemplary compounds of the invention in the above-described receptor transactivation and binding assays. Particularly, the transactivation data pertaining to activation of the RAR receptors were obtained in the chimeric assay, and the transactivation data pertaining to the activation of RXR receptors were obtained in the holoreceptor assay.

[2] = target: T2, RXRβ (Homo sapiens, UniProt P28702); experiment: holoreceptor transactivation assay, RXRβ; format: cell-based; details: for pEC50: holoreceptor assay, read-out: RXR Trans. EC50 β; for RXR Trans. efficacy β (in parentheses): percentage compared to the standard compound
T2 construct: expressed in transfected cells
T2 sequence (P28702 1-533): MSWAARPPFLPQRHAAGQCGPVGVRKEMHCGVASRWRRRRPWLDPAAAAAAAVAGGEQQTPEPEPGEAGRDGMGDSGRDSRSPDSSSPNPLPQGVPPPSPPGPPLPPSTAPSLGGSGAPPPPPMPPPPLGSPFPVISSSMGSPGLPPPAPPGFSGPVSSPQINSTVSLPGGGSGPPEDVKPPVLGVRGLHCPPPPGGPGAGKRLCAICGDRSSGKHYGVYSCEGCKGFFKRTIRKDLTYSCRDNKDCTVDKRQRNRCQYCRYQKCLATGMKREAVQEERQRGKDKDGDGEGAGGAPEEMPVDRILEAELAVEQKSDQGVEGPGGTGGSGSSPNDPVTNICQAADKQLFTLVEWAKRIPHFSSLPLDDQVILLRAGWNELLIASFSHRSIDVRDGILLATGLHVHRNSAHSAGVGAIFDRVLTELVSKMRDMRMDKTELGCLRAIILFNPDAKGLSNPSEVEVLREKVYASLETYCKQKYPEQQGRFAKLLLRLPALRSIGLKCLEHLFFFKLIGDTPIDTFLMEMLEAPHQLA
Excerpt: as §1, §2, §3

[3] = target: T3, RXRγ (Homo sapiens, UniProt P48443); experiment: holoreceptor transactivation assay, RXRγ; format: cell-based; details: for pEC50: holoreceptor assay, read-out: RXR Trans. EC50 γ; for RXR Trans. efficacy γ (in parentheses): percentage compared to the standard compound
T3 construct: expressed in transfected cells
T3 sequence (P48443 1-463): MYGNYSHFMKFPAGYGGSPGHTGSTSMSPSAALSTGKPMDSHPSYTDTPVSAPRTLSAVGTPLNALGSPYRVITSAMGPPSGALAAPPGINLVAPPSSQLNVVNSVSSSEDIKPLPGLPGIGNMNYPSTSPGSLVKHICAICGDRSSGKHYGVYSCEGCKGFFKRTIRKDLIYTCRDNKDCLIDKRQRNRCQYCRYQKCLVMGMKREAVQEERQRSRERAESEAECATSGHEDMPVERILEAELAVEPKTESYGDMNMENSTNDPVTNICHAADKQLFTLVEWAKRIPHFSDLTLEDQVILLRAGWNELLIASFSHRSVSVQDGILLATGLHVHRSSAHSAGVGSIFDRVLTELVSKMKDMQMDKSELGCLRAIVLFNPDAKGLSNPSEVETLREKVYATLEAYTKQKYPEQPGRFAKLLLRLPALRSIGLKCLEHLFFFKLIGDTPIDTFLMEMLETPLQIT
Excerpt: as §1, §2, §3

[4] = target: T4, RARα (Homo sapiens, UniProt P10276); experiment: ligand binding assay, RARα; details: read-out: RAR Bind. Ki α
T4 sequence (P10276 1-462): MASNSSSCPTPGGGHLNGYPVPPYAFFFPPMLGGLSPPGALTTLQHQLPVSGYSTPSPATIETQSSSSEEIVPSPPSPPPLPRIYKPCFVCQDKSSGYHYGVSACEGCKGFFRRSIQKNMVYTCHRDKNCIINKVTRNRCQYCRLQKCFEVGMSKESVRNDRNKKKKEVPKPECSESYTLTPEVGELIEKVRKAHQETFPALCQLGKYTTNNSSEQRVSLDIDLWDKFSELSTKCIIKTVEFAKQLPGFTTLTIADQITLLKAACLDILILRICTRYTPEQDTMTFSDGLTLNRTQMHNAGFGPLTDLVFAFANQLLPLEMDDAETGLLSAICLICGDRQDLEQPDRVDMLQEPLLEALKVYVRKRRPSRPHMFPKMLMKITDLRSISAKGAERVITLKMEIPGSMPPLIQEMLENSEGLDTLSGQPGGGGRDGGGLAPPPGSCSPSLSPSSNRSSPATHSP
Excerpt: as §1

[5] = target: T5, RARβ (Homo sapiens, UniProt P10826); experiment: ligand binding assay, RARβ; details: read-out: RAR Bind. Ki β
T5 sequence (P10826 1-455): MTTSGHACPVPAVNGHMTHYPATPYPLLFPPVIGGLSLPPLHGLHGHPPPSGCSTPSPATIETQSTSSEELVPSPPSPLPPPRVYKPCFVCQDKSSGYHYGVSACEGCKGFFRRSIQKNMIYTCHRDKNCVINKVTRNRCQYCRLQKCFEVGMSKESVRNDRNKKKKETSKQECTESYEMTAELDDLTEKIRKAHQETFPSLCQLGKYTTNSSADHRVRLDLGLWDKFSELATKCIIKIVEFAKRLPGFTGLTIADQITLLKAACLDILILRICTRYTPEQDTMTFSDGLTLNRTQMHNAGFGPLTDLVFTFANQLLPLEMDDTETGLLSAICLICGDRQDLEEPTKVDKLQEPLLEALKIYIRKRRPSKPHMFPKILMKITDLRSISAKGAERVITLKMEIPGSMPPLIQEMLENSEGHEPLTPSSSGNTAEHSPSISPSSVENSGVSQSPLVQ
Excerpt: as §1

[6] = target: T6, RARγ (Homo sapiens, UniProt P13631); experiment: ligand binding assay, RARγ; details: read-out: RAR Bind. Ki γ
T6 sequence (P13631 1-454): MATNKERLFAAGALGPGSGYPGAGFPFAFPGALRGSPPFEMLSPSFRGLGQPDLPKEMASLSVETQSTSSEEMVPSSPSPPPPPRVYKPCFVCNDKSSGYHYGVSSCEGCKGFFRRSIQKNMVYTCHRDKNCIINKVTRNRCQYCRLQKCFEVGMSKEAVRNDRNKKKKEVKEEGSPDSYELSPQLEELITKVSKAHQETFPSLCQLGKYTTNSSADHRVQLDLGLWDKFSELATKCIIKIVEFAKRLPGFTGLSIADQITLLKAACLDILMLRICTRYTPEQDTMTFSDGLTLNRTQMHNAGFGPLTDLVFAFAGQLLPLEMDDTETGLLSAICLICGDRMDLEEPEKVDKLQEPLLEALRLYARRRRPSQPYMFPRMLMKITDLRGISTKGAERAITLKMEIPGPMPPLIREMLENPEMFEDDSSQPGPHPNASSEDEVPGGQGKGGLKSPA
Excerpt: as §1

[7] = target: T1, RXRα; experiment: ligand binding assay, RXRα; details: read-out: RXR Bind Ki α
Excerpt: as §1

[8] = target: T2, RXRβ; experiment: ligand binding assay, RXRβ; details: read-out: RXR Bind Ki β
Excerpt: as §1

[9] = system: female diabetic db/db mice; experiment: serum glucose, triglyceride and thyroxine levels in db/db mice; details: for Glucosc Day 0 / Triglycerides Day 0: Day 0 (pre-treatment)
Procedure: An assay described below tests the effect of compounds of the invention on serum glucose, tryglyceride and thyroxine levels in female 9-10 weeks old db/db mice.
Female diabetic db/db (9-10 weeks old) mice were maintained on standard laboratory food and treated by oral gavage with vehicle (corn oil), standard compound (2E,4E,1′S,2′S)-3-methyl-5-[2′-methyl-2′-(5,5,8,8-tetramethyl-5,6,7,8-tetrahydro-naphthalen-2-yl)-cyclopropyl]-penta-2,4-dienoic acid (5 mg/kg) or the test compound (5-100 mg/kg, as described in Table 2) daily for seven days at 8:00 AM. Blood samples (70 μl) were taken by orbital bleeding at 11:00 AM on day 0 (pre-treatment), day 3, and day 6. On day 7, a blood sample (700 μl) was taken at 11:00 AM and the animals were sacrificed. Glucose, triglyceride and thyroxine (T4) levels were determined on a Boehringer Manheim Hatachi Clinical Chemistry Analyzer using standard protocols provided by the manufacturer and reagents that were supplied in commercially available kits (glucose and T4: Boehringer Manheim; triglycerides: Roche Diagnostics). A NUMBER OF animals were treated in each group.

[10] = target: T3, RXRγ; experiment: ligand binding assay, RXRγ; details: read-out: RXR Bind Ki γ
Excerpt: as §1

pEC50 [1] | RXR Trans. efficacy α (in parentheses) [1] | pEC50 [2] | RXR Trans. efficacy β (in parentheses) [2] | pEC50 [3] | RXR Trans. efficacy γ (in parentheses) [3] | pKi [4] | pKi [5] | pKi [6] | pKi [7] | pKi [8] | Structure (SMILES) | other results
8.70 | 32% | 8.22 | 27% | 8.70 | 10% | 6.32 | 6.35 | 5.85 | 9.00 | 7.82 | CCCN1CCC(C)(C)c2cc(C(C)C)cc(\C(C)=C(F)/C=C/C(C)=C/C(=O)O)c21 [Compound 29, (2E,4E,6E)-6-Fluoro-7-(6-isopropyl-4,4-dimethyl-1-propyl-1,2,3,4-tetrahydro-quinolin-8-yl)-3-methyl-octa-2,4,6-trienoic acid] | Glucosc Day 0 ([9]; 50 mg/kg oral gavage daily): 523 ± 84 mg/dL; Triglycerides Day 0 ([9]; 50 mg/kg oral gavage daily): 316 ± 339 mg/dL; Glucosc Day 3, 3h ([9]; 50 mg/kg oral gavage daily): 476 ± 96 mg/dL; Triglycerides Day 3, 3h ([9]; 50 mg/kg oral gavage daily): 326 ± 111 mg/dL; Glucosc Day 6, 3h ([9]; 50 mg/kg oral gavage daily): 441 ± 184 mg/dL
 |  |  |  |  |  |  |  |  |  |  | CC(/C=C/[C@@H]1C[C@]1(C)c1ccc2c(c1)C(C)(C)CCC2(C)C)=C\C(=O)O [Standard compound, (2E,4E,1′S,2′S)-3-methyl-5-[2′-methyl-2′-(5,5,8,8-tetramethyl-5,6,7,8-tetrahydro-naphthalen-2-yl)-cyclopropyl]-penta-2,4-dienoic acid] | Glucosc Day 0 ([9]; 4 mg/kg oral gavage daily): 524 ± 45 mg/dL; Triglycerides Day 0 ([9]; 4 mg/kg oral gavage daily): 273 ± 66 mg/dL; Glucosc Day 3, 3h ([9]; 4 mg/kg oral gavage daily): 512 ± 156 mg/dL; Triglycerides Day 3, 3h ([9]; 4 mg/kg oral gavage daily): 755 ± 464 mg/dL; Glucosc Day 6, 3h ([9]; 4 mg/kg oral gavage daily): 459 ± 148 mg/dL; T4 Day 7 ([9]; 4 mg/kg oral gavage daily, Day 7): 1.4 ± 0.5 µg/dL
9.52 | 86% | 9.40 | 66% | 9.52 | 75% | 6.15 | 6.37 | 5.70 | 8.70 | 7.68 | CC/C(=C(F)/C=C/C(C)=C/C(=O)O)c1cc(C(C)C)cc2c1N(CC)CCC2(C)C [Compound 28, (2E,4E,6E)-7-(1-Ethyl-6-isopropyl-4,4-dimethyl-1,2,3,4-tetrahydro-quinolin-8-yl)-6-fluoro-3-methyl-nona-2,4,6-trienoic acid] | pKi [10]: 7.68
10.00 | 74% | 9.30 | 77% | 10.00 | 75% | 6.17 | 6.08 | 5.60 | 9.00 | 7.96 | CCN1CCC(C)(C)c2cc(C(C)C)cc(\C(C)=C(F)/C=C/C(C)=C/C(=O)O)c21 [Compound 27, (2E,4E,6E)-7-(1-Ethyl-6-isopropyl-4,4-dimethyl-1,2,3,4-tetrahydro-quinolin-8-yl)-6-fluoro-3-methyl-octa-2,4,6-trienoic acid] | 

— patent publication US6734193B1, “(1,2,3,4-tetrahydroquinolin-8-yl)-heptatrienoic acid derivatives having serum glucose reducing activity” (Allergan, Inc., priority 2003, dated 2004)
